The target in assay [1] is T1, Adenosine receptor A1 (Homo sapiens, UniProt P30542).
T1 sequence (P30542 whole entry): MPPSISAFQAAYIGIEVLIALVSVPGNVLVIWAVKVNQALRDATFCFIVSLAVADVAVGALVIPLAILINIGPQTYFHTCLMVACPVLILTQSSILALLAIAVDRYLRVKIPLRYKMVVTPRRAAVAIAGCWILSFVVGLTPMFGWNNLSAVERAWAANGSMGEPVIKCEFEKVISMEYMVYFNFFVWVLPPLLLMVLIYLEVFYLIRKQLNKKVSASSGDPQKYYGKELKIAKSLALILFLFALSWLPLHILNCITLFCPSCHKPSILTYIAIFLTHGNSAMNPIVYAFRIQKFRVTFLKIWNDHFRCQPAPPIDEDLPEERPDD

The target of assay [2] is T2, Alpha-2B adrenergic receptor (Homo sapiens, UniProt P18089).
T2 sequence (P18089 whole entry): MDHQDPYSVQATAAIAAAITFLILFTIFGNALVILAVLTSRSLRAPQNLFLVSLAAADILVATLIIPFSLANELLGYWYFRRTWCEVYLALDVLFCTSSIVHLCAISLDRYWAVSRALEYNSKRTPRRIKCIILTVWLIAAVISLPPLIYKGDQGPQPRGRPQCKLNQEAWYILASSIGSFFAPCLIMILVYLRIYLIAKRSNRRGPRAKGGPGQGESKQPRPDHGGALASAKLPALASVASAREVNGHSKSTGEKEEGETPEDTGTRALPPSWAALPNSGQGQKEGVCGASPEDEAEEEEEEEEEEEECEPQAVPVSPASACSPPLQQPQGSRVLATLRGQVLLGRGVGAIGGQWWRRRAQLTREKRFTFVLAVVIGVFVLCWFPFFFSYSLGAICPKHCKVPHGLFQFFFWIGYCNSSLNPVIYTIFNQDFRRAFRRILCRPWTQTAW

Assay [3] deals with Beta-1 adrenergic receptor (Homo sapiens, UniProt P08588). Format: functional.
Chain of Beta-1 adrenergic receptor (P08588 whole entry): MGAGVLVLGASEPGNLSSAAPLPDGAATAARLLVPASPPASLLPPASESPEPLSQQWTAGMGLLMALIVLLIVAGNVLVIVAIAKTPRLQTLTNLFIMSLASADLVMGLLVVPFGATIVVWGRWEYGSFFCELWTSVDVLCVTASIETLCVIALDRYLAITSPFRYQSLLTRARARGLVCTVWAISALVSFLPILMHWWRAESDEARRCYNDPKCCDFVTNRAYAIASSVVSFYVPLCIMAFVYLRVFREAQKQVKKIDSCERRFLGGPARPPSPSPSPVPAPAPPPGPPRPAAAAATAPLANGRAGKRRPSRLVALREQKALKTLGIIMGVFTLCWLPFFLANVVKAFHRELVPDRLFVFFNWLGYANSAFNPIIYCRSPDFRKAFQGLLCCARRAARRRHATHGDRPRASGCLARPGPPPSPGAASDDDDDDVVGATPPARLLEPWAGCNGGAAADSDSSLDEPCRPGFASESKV
Assay [4] has as its target Histamine H1 receptor (Homo sapiens, UniProt P35367).
Assay [5] deals with T3, 5-hydroxytryptamine receptor 1A (Homo sapiens, UniProt P08908).
T3 sequence (P08908 whole entry): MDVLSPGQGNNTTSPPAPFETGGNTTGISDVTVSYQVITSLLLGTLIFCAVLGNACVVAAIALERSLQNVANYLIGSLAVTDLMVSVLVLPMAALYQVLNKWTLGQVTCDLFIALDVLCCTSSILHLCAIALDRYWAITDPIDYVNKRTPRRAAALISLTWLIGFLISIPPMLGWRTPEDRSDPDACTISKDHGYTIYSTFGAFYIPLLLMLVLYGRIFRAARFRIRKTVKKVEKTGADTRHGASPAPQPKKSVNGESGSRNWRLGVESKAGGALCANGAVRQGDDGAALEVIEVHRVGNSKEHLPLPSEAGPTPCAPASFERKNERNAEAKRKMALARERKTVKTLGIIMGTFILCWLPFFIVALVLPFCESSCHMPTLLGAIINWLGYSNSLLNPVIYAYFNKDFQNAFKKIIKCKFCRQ
Format: functional, cell-based.

The target in assay [6] is T4, 5-hydroxytryptamine receptor 2C (Homo sapiens, UniProt P28335).
T4 sequence (P28335 whole entry): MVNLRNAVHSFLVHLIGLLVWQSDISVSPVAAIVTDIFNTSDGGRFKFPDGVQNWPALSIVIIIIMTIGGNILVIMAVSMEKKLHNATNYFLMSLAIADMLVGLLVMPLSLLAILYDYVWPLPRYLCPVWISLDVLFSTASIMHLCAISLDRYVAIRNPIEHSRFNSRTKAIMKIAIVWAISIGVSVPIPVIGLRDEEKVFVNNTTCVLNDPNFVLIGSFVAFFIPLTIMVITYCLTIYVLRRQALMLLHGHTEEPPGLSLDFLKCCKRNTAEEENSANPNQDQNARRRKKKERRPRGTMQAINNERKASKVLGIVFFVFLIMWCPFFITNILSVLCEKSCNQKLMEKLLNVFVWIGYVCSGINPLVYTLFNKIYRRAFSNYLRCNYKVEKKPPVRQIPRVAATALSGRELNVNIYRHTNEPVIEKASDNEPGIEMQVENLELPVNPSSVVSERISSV

For assay [7], the target named is T5, Progesterone receptor (Homo sapiens, UniProt P06401).
T5 sequence (P06401 whole entry): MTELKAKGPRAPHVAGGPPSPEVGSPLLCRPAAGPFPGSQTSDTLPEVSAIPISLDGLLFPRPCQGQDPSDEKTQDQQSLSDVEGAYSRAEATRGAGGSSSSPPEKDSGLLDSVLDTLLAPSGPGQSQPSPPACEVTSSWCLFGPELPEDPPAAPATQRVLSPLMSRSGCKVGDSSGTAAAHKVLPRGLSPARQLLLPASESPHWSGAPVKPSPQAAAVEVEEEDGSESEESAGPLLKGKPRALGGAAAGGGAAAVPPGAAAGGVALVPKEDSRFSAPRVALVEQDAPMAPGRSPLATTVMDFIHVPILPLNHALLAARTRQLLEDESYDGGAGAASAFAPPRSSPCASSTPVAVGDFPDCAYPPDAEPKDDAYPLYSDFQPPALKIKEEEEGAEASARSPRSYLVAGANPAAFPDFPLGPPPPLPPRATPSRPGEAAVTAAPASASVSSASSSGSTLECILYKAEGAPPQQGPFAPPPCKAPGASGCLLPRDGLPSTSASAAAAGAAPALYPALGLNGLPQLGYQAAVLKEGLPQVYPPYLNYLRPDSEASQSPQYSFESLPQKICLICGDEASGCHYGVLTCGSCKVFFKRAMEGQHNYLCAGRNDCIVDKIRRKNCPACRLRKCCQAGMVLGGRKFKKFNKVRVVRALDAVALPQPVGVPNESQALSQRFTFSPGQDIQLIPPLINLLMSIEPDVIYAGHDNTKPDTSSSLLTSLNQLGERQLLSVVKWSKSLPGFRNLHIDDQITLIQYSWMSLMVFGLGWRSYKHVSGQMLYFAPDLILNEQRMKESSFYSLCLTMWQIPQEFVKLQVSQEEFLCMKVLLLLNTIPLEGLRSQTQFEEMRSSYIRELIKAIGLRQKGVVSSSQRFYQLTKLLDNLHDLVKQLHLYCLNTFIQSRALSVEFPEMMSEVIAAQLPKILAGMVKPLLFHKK
In kind it is functional.

Assay [8] concerns the target T5, Progesterone receptor. Format: functional. This is another data set of the same source.

Where only a bound is given, the exact number is not on record here.

These results are taken from ChEMBL document CHEMBL5291721, “A preclinical secondary pharmacology resource illuminates target-adverse drug reaction associations of marketed drugs” (Nat Commun, 2023).
Note: assay procedure not described here.

Chain of Histamine H1 receptor (P35367 whole entry): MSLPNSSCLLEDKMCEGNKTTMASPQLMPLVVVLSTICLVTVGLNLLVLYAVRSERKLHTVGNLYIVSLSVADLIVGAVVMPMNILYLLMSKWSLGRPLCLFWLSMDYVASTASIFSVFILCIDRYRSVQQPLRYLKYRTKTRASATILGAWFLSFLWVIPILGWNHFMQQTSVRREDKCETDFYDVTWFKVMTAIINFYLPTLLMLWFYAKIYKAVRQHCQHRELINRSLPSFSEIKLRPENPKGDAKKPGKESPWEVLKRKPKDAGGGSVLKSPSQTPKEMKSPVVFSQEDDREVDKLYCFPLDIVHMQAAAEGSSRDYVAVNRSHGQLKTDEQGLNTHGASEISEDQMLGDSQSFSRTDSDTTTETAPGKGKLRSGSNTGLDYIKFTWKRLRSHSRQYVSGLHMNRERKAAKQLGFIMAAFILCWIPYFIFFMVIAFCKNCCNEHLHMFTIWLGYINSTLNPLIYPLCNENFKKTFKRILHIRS

On to `N#Cc1ccccc1-c1cc(-c2ccccn2)cn(-c2ccccc2)c1=O`, for which the half-maximal activity concentration (AC50) in assay [1], in assay [2], in assay [3], in assay [4], in assay [5] and in assay [6] was greater than 30 µM throughout. In addition, the AC50 in assay [7] and in assay [8] was greater than 30 µM in each case.
As for `N=C(N)NCCCCCCC(=O)NC(O)C(=O)NCCCCNCCCN` (centres undefined), the AC50 in assay [1], in assay [2], in assay [3], in assay [4], in assay [5] and in assay [6] was greater than 30 µM throughout. The AC50 in assay [7] and in assay [8] was greater than 30 µM in each case.
With `C=C[C@@]1(C)CC(=O)[C@]2(O)[C@@]3(C)[C@@H](O)CCC(C)(C)[C@@H]3[C@H](OC(=O)CCN(C)C)[C@H](OC(C)=O)[C@@]2(C)O1`, the AC50 in assay [1], in assay [2], in assay [3], in assay [4], in assay [5] and in assay [6] was greater than 30 µM in each case. Besides, the AC50 in assay [7] and in assay [8] was greater than 30 µM in each case.
On to `CC(=O)OCC(=O)[C@@]1(O)CC[C@H]2[C@@H]3CCC4=CC(=O)CC[C@]4(C)C3=CC[C@@]21C` [ANECORTAVE ACETATE], for which the AC50 in assay [1] was greater than 10 µM; in assay [2], greater than 10 µM; in assay [3], greater than 10 µM; in assay [4], greater than 10 µM; in assay [5], greater than 10 µM; in assay [6], greater than 30 µM. Moreover, the AC50 in assay [7] and in assay [8] was greater than 30 µM each time.
`NS(=O)(=O)c1cc2c(cc1C(F)(F)F)NC(Cc1ccccc1)NS2(=O)=O` (centres undefined) [BENDROFLUMETHIAZIDE]: the AC50 in assay [1] was greater than 10 µM; in assay [2], greater than 10 µM; in assay [3] it was greater than 10 µM; in assay [4] it was greater than 10 µM; in assay [5], greater than 10 µM; in assay [6], greater than 30 µM. The AC50 in assay [7] and in assay [8] was greater than 10 µM throughout.
Take `O=C(CCCN1CCC(n2c(O)nc3ccccc32)CC1)c1ccc(F)cc1` [BENPERIDOL]: the AC50 in assay [1] was greater than 30 µM; in assay [2], 0.85 µM; in assay [3], 8.5 µM; in assay [4], 0.73 µM; in assay [5] it was greater than 30 µM; in assay [6], 13 µM. Besides, the AC50 in assay [7] was greater than 30 µM; in assay [8], 29 µM.
`CCN(CC)C(=O)C1CN2CCc3cc(OC)c(OC)cc3C2CC1OC(C)=O` (centres undefined) [BENZQUINAMIDE]: the AC50 in assay [1] was greater than 30 µM; in assay [2] it was 1.03 µM; in assay [3] it was greater than 30 µM; in assay [4], greater than 30 µM; in assay [5], greater than 30 µM; in assay [6] it was 17 µM. Besides, the AC50 in assay [7] and in assay [8] was greater than 30 µM throughout.
In the case of `CCCCC1(CC)C(=O)NC(=O)NC1=O` [BUTETHAL], the AC50 in assay [1], in assay [2], in assay [3], in assay [4], in assay [5] and in assay [6] was greater than 30 µM each time. Besides, the AC50 in assay [7] and in assay [8] was greater than 30 µM each time.
Take `CCOC(=O)NNc1ccc(N(CC)CC(C)O)nn1` (centres undefined) [CADRALAZINE]: the AC50 in assay [1], in assay [2], in assay [3], in assay [4], in assay [5] and in assay [6] was greater than 30 µM in each case. The AC50 in assay [7] and in assay [8] was greater than 30 µM throughout.
`CC1(C)C(/C=C/C=C/C=C/C=C2\N(CCCCS(=O)(=O)O)c3ccc4ccccc4c3C2(C)C)=[N+](CCCCS(=O)(=O)[O-])c2ccc3ccccc3c21` [INDOCYANINE GREEN ACID FORM]: the AC50 in assay [1] is 22 µM; in assay [2] it was 6.9 µM; in assay [3], 9.4 µM; in assay [4] it was 8.3 µM; in assay [5], greater than 30 µM; in assay [7], greater than 30 µM. Half-maximal activity in assay [8] (AC50) was put at 3.4 µM.
